The target in data set [1] is T1, PAD4 (Homo sapiens, UniProt Q9UM07). The note with it: cited from earlier work.
Target sequence in this assay (Q9UM07 whole entry, species assumed): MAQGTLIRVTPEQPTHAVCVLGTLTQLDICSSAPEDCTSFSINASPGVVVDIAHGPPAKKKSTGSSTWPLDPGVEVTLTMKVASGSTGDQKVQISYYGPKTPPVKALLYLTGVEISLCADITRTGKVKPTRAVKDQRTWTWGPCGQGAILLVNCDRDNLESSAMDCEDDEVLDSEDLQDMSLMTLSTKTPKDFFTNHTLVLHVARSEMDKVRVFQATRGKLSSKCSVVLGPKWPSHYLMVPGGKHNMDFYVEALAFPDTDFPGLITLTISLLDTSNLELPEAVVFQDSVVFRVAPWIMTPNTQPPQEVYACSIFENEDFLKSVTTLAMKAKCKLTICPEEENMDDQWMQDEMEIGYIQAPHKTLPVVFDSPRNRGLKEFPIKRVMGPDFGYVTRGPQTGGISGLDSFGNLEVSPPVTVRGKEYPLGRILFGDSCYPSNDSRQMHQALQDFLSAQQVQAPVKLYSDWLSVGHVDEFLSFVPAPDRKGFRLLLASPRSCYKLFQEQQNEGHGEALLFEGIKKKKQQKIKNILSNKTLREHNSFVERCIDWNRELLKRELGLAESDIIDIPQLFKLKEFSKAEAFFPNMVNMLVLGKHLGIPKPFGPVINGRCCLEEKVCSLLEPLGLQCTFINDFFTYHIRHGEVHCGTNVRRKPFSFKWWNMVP
Data set [2] addresses T1, PAD4. The settings on record: cited from earlier work. This is another data set of the same source.
Target sequence in this assay (Q9UM07 whole entry, species assumed): as above
The test system of data set [3] is mouse neutrophils. The settings on record: cited from earlier work.
The test system of data set [4] is Balb/c mice. The experiment in a line: ACPA-induced systemic bone loss in mice, micro-CT of tibia. Type of data set: in vivo, mouse. The note with it: s.c. twice daily 30 mg/kg/day for 6 days from day 6. How it is done:
Animal experiments were conducted using adult male Balb/c (Harlan) 15 weeks of age. Mice were housed in standard cages (3-5 per cage) in a climate controlled environment maintaining a 12-hour light/dark cycle with access to food and water ad libitum. All experiments were approved by the local ethics committee for animal experiments in Sweden. […] Starting day 6, the CXCR2 antagonist reparixin (L-lysin salt, HY-15252, MedChem Express) was injected subcutaneously (s.c. in 100 μl saline) twice daily (30 mg/kg/day) for 6 days. At the end of the study, mice were anesthetized using 4% isoflurane, decapitated and left hind leg removed and post-fixed in 4% PFA until further analysis.
Bone structure was analyzed using a SkyScan 1176 micro-CT (Bruker) with a voxel size of 9 μm. The scanning was conducted at 50 kV/480 ρA with a 0.2 mm aluminum filter. The exposure time was 900 ms. The x-ray projections were obtained at 0.4° intervals with a scanning angular rotation of 180°. The projection images were reconstructed into 3-dimensional images using NRecon software (version 1.6.9.8; Bruker) and analyzed using CTVox software (version 2.7.0; Bruker). Trabecular bone in tibia located 644 μm from the proximal growth plate and extending 100.5 μm was analysed regarding BMD and 3D analysis and a volume of cortical bone in tibia mesasuring 617 μm in length, located in the distal tibia was measured for TMD, using CTAnalyzer software (version 1.14.4.1; Bruker). The 3D structures of each joint were blindly assessed by two observers (T.J. and M.M.).

For data set [5], the system named is mice. The experiment in a line: ACPA-induced pain (mechanical hypersensitivity) in mice, von Frey filaments. The settings on record: 5 mg/kg s.c. once daily; C03 2 mg i.v.; p<0.01. Type of data set: in vivo, mouse. On the procedure:
Starting day 1, the PAD inhibitor 2-2-Chloroacetamide (C0267, Sigma Aldrich) was injected subcutaneously s.c. (in 100 μl saline with 5% DMSO) once daily (5 mg/kg/day) for 10 days.
Withdrawal thresholds of the hind paws were assessed using von Frey filaments as previously described (Bas, D. B. et al., 2012). In brief, the mice were habituated in individual compartments on top of a wire-mesh surface (Ugo Basile) prior to experiment. On test days, mice were given time to acclimatize and then optiHair filaments (Marstock OptiHair) of increasing buckling force (0.5, 1, 2, 4, 8, 16, and 32 mN) were applied to the plantar surface of the paw until the filament bent slightly. A brisk withdrawal of the paw within 2-3 seconds was noted as a positive response. A 50% withdrawal threshold was calculated using the Dixon up-down method (Chaplan, S. R., et al., 1994) and results from both hind paws were averaged and presented as % of baseline values.

Data set [6] has as its system ACPA-stimulated OCs. Briefly: ACPA-stimulated osteoclastogenesis with inhibitor, TRAP staining. Type of data set: cell-based, human. The text has this: (§1) The medium was exchanged every three days.
(§2) IL-8 was neutralized in the cell supernatants using an anti-IL-8/CXCL8 neutralizing antibody (clone MAB208, R&D systems, UK). PAD activity was inhibited using a pan-PAD inhibitor Cl-amidine (Cayman chemical, Michigan, USA), either at the initiation of the OC cultures or three days before the end of culturing.

In data set [7] the test system is antibody-mediated arthritis. The note with it: Willis et al.; cited from earlier work.
Data set [8] deals with collagen-induced arthritis. The settings on record: Willis et al., cited from earlier work.
Data set [9] has as its system citrullinated targets in mature OCs. The experiment in a line: immunohistochemistry of citrullinated targets in mature OCs with PAD inhibitor. The settings on record: inhibitor added from the beginning of the cultures; mB02 staining. Format: cell-based, human. How it is done: Murinized monoclonal IgG2a ACPAs (D10, B02, C07) and control antibody (E02) were used to investigate the presence of citrullinated proteins during OC maturation. A rabbit polyclonal anti-PAD2 (Cosmo Bio, Tokyo, Japan) and a monoclonal mouse anti-PADI4 (Abcam, Cambridge, UK) antibody were used to investigate the cellular expression of PAD enzymes during OC maturation. Mφ- and iDC-derived OCs were cultured in 8-well glass chamber slides.
Cells at different stages of differentiation were fixed with 2% (vol/vol) formaldehyde (Sigma-Aldrich, Stockholm, Sweden) at 4° C. and stored at −70° C. until use. Following blocking of endogenous peroxidase and avidin-biotin activity, the slides were incubated with primary monoclonal antibodies. HRP conjugated anti-mouse antibody was used as a secondary antibody and developed with 3,3-diaminobenzidene (DAB) for 7 minutes. The slides were counterstained with Mayer's hematoxylin, dehydrated and permanently mounted and viewed using a light microscope (Reichert Polyvar 2 type 302001, Leica).

Data set [10] has as its system OCs. The experiment in a line: LDH cytotoxicity assay in OC culture supernatants. The note with it: OC cultures with PAD inhibitor. Type of data set: cell-based, human. How it is done:
(§3) The LDH levels in the cell-free culture supernatants were measured using an LDH cytotoxicity assay kit (Roche Diagnostics Scandinavia AB, Bromma, Sweden) according to the manufacturer's instructions.

Data set [11] has as its system RA-derived synovial fibroblasts. The experiment in a line: LDH cytotoxicity assay in synovial fibroblast supernatants. Type of data set: cell-based, human. The note with it: PADi at similar doses as in OC cultures. How it is done: (§4) Synovial fibroblasts were isolated from the synovial tissue of RA patients by enzymatic digestion. The cells were growth at 37° C. in 5% CO2 in Dulbecco's modified Eagle medium (DMEM, Sigma-Aldrich, Stockholm, Sweden) with 10% (v/v) heat-inactivated fatal cow serum (FCS, Sigma-Aldrich, Stockholm, Sweden), 100 U/ml penicillin, 100 μg/ml streptomycin and L-glutamine. The cells at passages 4-8 were used throughout this study. Twenty four-well plates were pre-coated with collagen (50 μg/ml), followed by 1 hour of blocking with 3% BSA (Sigma). A sufficient number of SFs were grown to 80-90% confluence and serum starved for 1-2 hours. The scratches were then made using a P-200 pipette tip. The floating cells were removed by washing with PBS. The cells were incubated with or without PAD inhibitors at the indicated concentration for 48 hours. Light microscope images were taken immediately at 0 and 5 hours after scratching. The images were analyzed using NIH ImageJ. The closure areas were normalized to medium control, and these values represent the migration index.
as §3

In data set [12] the test system is ACPA-stimulated OCs. Briefly: ACPA-stimulated OC calcium phosphate resorption with inhibitor. Type of data set: cell-based, human. The settings on record: PADi added from the beginning of the OC cultures.
From the text: as §1, §2

In data set [13] the test system is Mφ-derived OCs. Briefly: Mφ-derived osteoclast culture, TRAP staining (OC numbers). The settings on record: for unstimulated OC differentiation (OC numbers): RANKL and M-CSF, early PAD inhibition (at initiation of OC culture). Type of data set: cell-based, human.
In data set [14] the test system is iDC-derived OCs. The experiment in a line: iDC-derived osteoclast culture, TRAP staining (OC numbers). Type of data set: cell-based, human. The note with it: RANKL and M-CSF.
From the text: as §1, §2

Data set [15] relates to RA-derived synovial fibroblasts. Briefly: synovial fibroblast in vitro scratch assay (migration index). The settings on record: PADi at similar doses as in OC cultures. Format: cell-based, human. How it is done:
as §4

Data set [16] deals with T1, PAD4. More on the design: endogenous in cells; host or cells: human neutrophils. The settings on record: cited from earlier work.
Target sequence in this assay (Q9UM07 whole entry): as the sequence (Q9UM07 whole entry, species assumed) above
For data set [17] the following is noted: mouse; cited from earlier work.
In data set [18] the test system is human neutrophils. The settings on record: cited from earlier work.
For data set [19] the following is noted: rat; cited from earlier work.
The mark [20] stands for this setting: early PAD inhibition, doses as low as 0.2 μM.

“Also recorded” adds a separate entry of the source. Where two headings read alike, the source gives them in different places.

The term IC50 denotes the midpoint of a concentration-inhibition curve. For `Cn1c(-c2nc3cc(C(=O)N4CCCC(N)C4)ccc3n2C)cc2ccccc21` (stereo not drawn) [GSK-121, (3-amino-1-piperidinyl)[1-methyl-2-(1-methyl-1H-indol-2-yl)-1H-benzimidazol-5-yl]-methanone, 2,2,2-trifluoroacetate], the IC50 in data set [1] (functional assay, read-out: IC50, inhibition of citrullination of PAD4 target proteins) was 3200 nM.
For “(3-amino-1-piperidinyl)[1-methyl-2-(1-methyl-1H-indol-2-yl)-1H-benzimidazol-5-yl]-methanone, 2,2,2-trifluoroacetate [GSK199]”, in data set [2] (binds to the low-calcium form of the enzyme), the IC50 was 200 nM. For the same compound, the “selectivity for PAD4 over PAD1-3” value in data set [2] is “selective for PAD4 over PAD1-3”. Further, in data set [1], the “inhibition of citrullination of PAD4 target proteins” value is “can inhibit”. Moreover, in data set [3], the “formation of neutrophil extracellular traps” value is reported as “diminish”.
`CC(C)Cc1ccc([C@@H](C)C(=O)NS(C)(=O)=O)cc1` [reparixin]: in data set [4], the “ACPA-induced change of bone volume fraction” value is listed as “reversed”, the “ACPA-induced change of trabecular bone mineral density (BMD)” value is recorded as “reversed” and the “ACPA-induced change of trabecular number” value was “reversed”.
As to `NC(=O)CCl` [2-Chloroacetamide (2CA), 2-Chloroacetamide], in data set [5], the “pain (mechanical hypersensitivity) induced by ACPA antibody C03” value was “prevents”.
As to adalimumab, the “effect of ACPAs on osteoclastogenesis” value in data set [6] (antibody concentrations as high as 10 μg/ml) is reported as “No such effects”.
With `N=C(CCl)NCCC[C@H](NC(=O)c1ccccc1)C(N)=O` [Cl-amidine, N-α-benzoyl-N5-(2-chloro-1-iminoethyl)-L-Orn amide], the “effect on antibody-mediated arthritis” value in [7] was “no effect”. The “disease activity in collagen-induced arthritis” value in [8] was “decreases disease activity”. For the same compound, in data set [8] (in the context of lower synovial inflammation), the “bone damage in collagen-induced arthritis” value was “lower bone damage”. Moreover, the “staining intensity of citrullinated targets in OCs after PAD inhibitor treatment” value in data set [9] is on record as “markedly diminished”. For the same compound, the “cell death, LDH release in the supernatants” value in data set [10] is “without inducing cell death; also recorded: without any cytotoxic effect”. For the same compound, the “fibroblast survival (LDH assay)” value in [11] was “no changes; also recorded: does not affect”. In data set [12], the “ACPA-induced calcium phosphate resorption” value is on record as “prevented”. Moreover, the “unstimulated OC differentiation (OC numbers)” value in [13] was “dose-dependent inhibition; also recorded: dose-dependently inhibited”; in [13] (listed as PADi), “affects both unstimulated and ACPA-mediate osteoclastogenesis”. In addition, in data set [13] (setting [20]), the “unstimulated differentiation of OCs” value is recorded as “no longer able to affect”. The “ACPA-mediated osteoclastogenesis (OC activation)” value in data set [6] (PADi added from the beginning of the cultures) was “not able to promote OCs activation; also recorded: affects both unstimulated and ACPA-mediate osteoclastogenesis; also recorded: prevented”. Besides, the ACPA-mediated osteoclastogenesis result was “still able to inhibit; also recorded: inhibits” in data set [6] (setting [20]) and “affects only ACPA-mediated osteoclastogenesis” in data set [6] (late PAD inhibition (three days before ending the OC cultures), doses as high as 20 μM). Also, the “OC differentiation from iDC” value in data set [14] was “dose-dependent inhibition”. In addition, in data set [15], the “fibroblast migration (migration index)” value is listed as “no changes; also recorded: does not affect”.
Consider `COc1cc(C(=O)N2CC[C@@H](O)[C@@H](N)C2)cc2nc(-c3cc4ccccc4n3CC3CC3)n(C)c12` [GSK484, [(3S,4R)-3-amino-4-hydroxy-1-piperidinyl][2-[1-(cyclopropylmethyl)-1H-indol-2-yl]-7-methoxy-1-methyl-1H-benzimidazol-5-yl]-methanone], for which the “citrullination of PAD4 target proteins in human neutrophils” value in data set [16] is “blocks”. The pharmacokinetic profile entry in [17] and in data set [19] was “favorable” each time. Also, the “formation of neutrophil extracellular traps” value in [18] and in [3] was “inhibits” each time.

These data come from patent US20170105971A1, “METHODS AND COMPOUNDS FOR THE TREATMENT OF BONE LOSS AND/OR PAIN” (priority 2015, published 2017).
